Laboratory results reported in PubChem BioAssay (NCI).
Several values for one entry are separate records, joined by “and”; a condition that tells them apart may be missing. Equal values may be shown once.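 Interpolation was linear, between the two tested concentrations surrounding the appropriate level; five concentrations were tested over 48 hours in 96-well plates. GI50: concentration for 50% inhibition of growth. Definition used: TGI = concentration required for complete inhibition of growth.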

Assays:
Assay in all cases: inhibition of tumour cell growth, NCI panel, 48 h
DU-145 prostate = tested on: DU-145 prostate
SF-539 CNS = tested on: SF-539 CNS
NCI-H522 lung = tested on: NCI-H522 lung
RPMI-8226 leukemia = tested on: RPMI-8226 leukemia
TK-10 renal = tested on: TK-10 renal
BT-549 breast = tested on: BT-549 breast
ACHN renal = tested on: ACHN renal
CCRF-CEM leukemia = tested on: CCRF-CEM leukemia
RXF 393 renal = tested on: RXF 393 renal
UACC-257 melanoma = tested on: UACC-257 melanoma

Question: What does the source list for `C=CCSC1=N/C(=C\c2ccc(Cl)cc2)C(=O)N1CC=C`?
Answer: TGI (DU-145 prostate): > 100 µM; TGI (SF-539 CNS): > 100 µM; TGI (NCI-H522 lung): 79.9 µM; TGI (RPMI-8226 leukemia): 52.9 µM; TGI (TK-10 renal): > 100 µM; TGI (BT-549 breast): 76.2 µM; TGI (ACHN renal): > 100 µM; TGI (CCRF-CEM leukemia): 51.8 µM; TGI (RXF 393 renal): 45.3 µM; TGI (UACC-257 melanoma): 76.7 µM

Question: What does the source list for `COc1cc2c(c3c1c(=O)c1ccccc1n3C)C=CC1(CCCC1)O2`?
Answer: TGI (DU-145 prostate): 31.6 µM; TGI (SF-539 CNS): 17.3 µM; TGI (NCI-H522 lung): 33.5 µM; TGI (RPMI-8226 leukemia): 5.48 µM; TGI (TK-10 renal): 33.7 µM; TGI (BT-549 breast): 25.5 µM; TGI (ACHN renal): 32.7 µM; TGI (CCRF-CEM leukemia): 53.9 µM; TGI (RXF 393 renal): 22.8 µM; TGI (UACC-257 melanoma): 31 µM

Question: How did the TGI (DU-145 prostate) turn out when `CN(C)CCNc1ccc2c(=O)n(CCN(C)C)c(=O)n3c4ccc(O)cc4c(=O)c1c23` was run?
Answer: 0.0781 µM

Question: What about the TGI (SF-539 CNS) of the same molecule?
Answer: < 0.0389 µM

Question: And the TGI (NCI-H522 lung)?
Answer: 0.221 µM

Question: And the TGI (RPMI-8226 leukemia)?
Answer: 0.417 µM

Question: And the TGI (TK-10 renal)?
Answer: 1.21 µM

Question: And the TGI (BT-549 breast)?
Answer: 2.35 µM

Question: What about the TGI (ACHN renal) of the same molecule?
Answer: < 0.01 µM

Question: And the TGI (CCRF-CEM leukemia)?
Answer: < 0.01 µM

Question: What about the TGI (RXF 393 renal) of the same molecule?
Answer: 0.224 µM

Question: What about the TGI (UACC-257 melanoma) of the same molecule?
Answer: 0.795 µM

Question: For `CCOC(=O)c1c(C)n(Cc2ccc(Cl)cc2Cl)c2c1cc(O)c1[nH]c3c(c12)CCCC3`, which TGI (DU-145 prostate) is on record?
Answer: > 100 µM

Question: And the TGI (SF-539 CNS)?
Answer: 56.9 µM

Question: What about the TGI (NCI-H522 lung) of the same molecule?
Answer: 38.8 µM

Question: And the TGI (RPMI-8226 leukemia)?
Answer: 50.7 µM

Question: What about the TGI (TK-10 renal) of the same molecule?
Answer: 45.4 µM

Question: What about the TGI (BT-549 breast) of the same molecule?
Answer: 41.3 µM

Question: What about the TGI (ACHN renal) of the same molecule?
Answer: 61.2 µM

Question: What about the TGI (CCRF-CEM leukemia) of the same molecule?
Answer: 77.1 µM

Question: What about the TGI (RXF 393 renal) of the same molecule?
Answer: 41.2 µM

Question: What about the TGI (UACC-257 melanoma) of the same molecule?
Answer: 43.2 µM

Question: With `Nc1n(CC(=O)c2ccccc2)nc2sc(-c3ccccc3)n[n+]12` as the molecule, how does the TGI (DU-145 prostate) read?
Answer: 87.7 µM

Question: What about the TGI (SF-539 CNS) of the same molecule?
Answer: 25.3 µM

Question: And the TGI (NCI-H522 lung)?
Answer: 34.4 µM

Question: And the TGI (RPMI-8226 leukemia)?
Answer: 58.8 µM

Question: What about the TGI (TK-10 renal) of the same molecule?
Answer: > 100 µM

Question: What about the TGI (BT-549 breast) of the same molecule?
Answer: > 100 µM

Question: What about the TGI (ACHN renal) of the same molecule?
Answer: 29.6 µM

Question: What about the TGI (CCRF-CEM leukemia) of the same molecule?
Answer: > 100 µM

Question: What about the TGI (RXF 393 renal) of the same molecule?
Answer: 25.1 µM

Question: What about the TGI (UACC-257 melanoma) of the same molecule?
Answer: > 100 µM

Question: With `C=CCn1c(=O)c(C)cn(COCCO)c1=O` as the molecule, how does the TGI (DU-145 prostate) read?
Answer: > 100 µM

Question: What about the TGI (SF-539 CNS) of the same molecule?
Answer: > 100 µM

Question: What about the TGI (NCI-H522 lung) of the same molecule?
Answer: > 100 µM

Question: And the TGI (RPMI-8226 leukemia)?
Answer: > 100 µM

Question: And the TGI (TK-10 renal)?
Answer: > 100 µM

Question: What about the TGI (BT-549 breast) of the same molecule?
Answer: > 100 µM

Question: What about the TGI (ACHN renal) of the same molecule?
Answer: > 100 µM

Question: What about the TGI (CCRF-CEM leukemia) of the same molecule?
Answer: > 100 µM

Question: What about the TGI (RXF 393 renal) of the same molecule?
Answer: > 100 µM

Question: What about the TGI (UACC-257 melanoma) of the same molecule?
Answer: > 100 µM

Question: `CC(=O)c1c(-c2cccc3ccccc23)c(C#N)c(=S)n(C2OC(CO)C(O)C(O)C2O)c1C` (stereo unspecified) was tested. Which TGI (DU-145 prostate) did it give?
Answer: > 100 µM

Question: And the GI50 (SF-539 CNS)?
Answer: > 100 µM and 39.6 µM

Question: And the TGI (SF-539 CNS)?
Answer: > 100 µM

Question: What about the TGI (NCI-H522 lung) of the same molecule?
Answer: > 100 µM

Question: And the TGI (RPMI-8226 leukemia)?
Answer: > 100 µM

Question: And the TGI (TK-10 renal)?
Answer: > 100 µM

Question: And the TGI (BT-549 breast)?
Answer: > 100 µM

Question: What about the TGI (ACHN renal) of the same molecule?
Answer: > 100 µM

Question: And the TGI (CCRF-CEM leukemia)?
Answer: > 100 µM

Question: And the TGI (RXF 393 renal)?
Answer: > 100 µM

Question: What about the TGI (UACC-257 melanoma) of the same molecule?
Answer: > 100 µM

Question: What does the source list for `O=C1c2cccc([N+](=O)[O-])c2C(=O)N1Cc1ccccc1`?
Answer: TGI (DU-145 prostate): > 100 µM; TGI (SF-539 CNS): > 100 µM; TGI (NCI-H522 lung): > 100 µM; TGI (RPMI-8226 leukemia): > 100 µM; TGI (TK-10 renal): > 100 µM; TGI (BT-549 breast): > 100 µM; TGI (ACHN renal): > 100 µM; TGI (CCRF-CEM leukemia): > 100 µM; TGI (RXF 393 renal): > 100 µM; TGI (UACC-257 melanoma): > 100 µM

Question: Which results are given for `O=[N+]([O-])c1ccccc1OCCOc1ccccc1[N+](=O)[O-]`?
Answer: TGI (DU-145 prostate): > 100 µM; TGI (SF-539 CNS): > 100 µM; TGI (NCI-H522 lung): > 100 µM; TGI (RPMI-8226 leukemia): > 100 µM; TGI (TK-10 renal): > 100 µM; TGI (BT-549 breast): > 100 µM; TGI (ACHN renal): > 100 µM; TGI (CCRF-CEM leukemia): > 100 µM; TGI (RXF 393 renal): > 100 µM; TGI (UACC-257 melanoma): > 100 µM

Question: How did the TGI (DU-145 prostate) turn out when `Cn1c(=O)c2c(nc3n(CC(O)CCl)c(=O)ccn23)n(C)c1=O` (stereo unspecified) was run?
Answer: > 100 µM

Question: And the TGI (SF-539 CNS)?
Answer: > 100 µM

Question: And the TGI (NCI-H522 lung)?
Answer: > 100 µM

Question: What about the TGI (RPMI-8226 leukemia) of the same molecule?
Answer: > 100 µM

Question: What about the TGI (TK-10 renal) of the same molecule?
Answer: > 100 µM

Question: What about the TGI (BT-549 breast) of the same molecule?
Answer: > 100 µM

Question: And the TGI (ACHN renal)?
Answer: > 100 µM

Question: And the TGI (CCRF-CEM leukemia)?
Answer: > 100 µM

Question: What about the TGI (RXF 393 renal) of the same molecule?
Answer: > 100 µM

Question: And the TGI (UACC-257 melanoma)?
Answer: > 100 µM

Question: For `CC1CC[C@@]2(OC1)OC1C[C@H]3[C@@H]4CC=C5CC(OC6OC(CO)C(OC7OC(CO)C(O)C(OC8OCC(O)C(O)C8O)C7OC7OC(CO)C(OC8OC(C)C(OC9OC(C)C(O)C(O)C9O)C(O)C8O)C(O)C7O)C(O)C6O)CCC5(C)[C@H]4CCC3(C)C1[C@@H]2C` (stereo partly specified), which TGI (DU-145 prostate) is on record?
Answer: 15.9 µM

Question: And the TGI (SF-539 CNS)?
Answer: 12.7 µM

Question: What about the TGI (NCI-H522 lung) of the same molecule?
Answer: 16.8 µM

Question: What about the TGI (RPMI-8226 leukemia) of the same molecule?
Answer: 25 µM

Question: And the TGI (TK-10 renal)?
Answer: 15.8 µM

Question: And the TGI (BT-549 breast)?
Answer: 16.4 µM

Question: And the TGI (ACHN renal)?
Answer: 9.92 µM

Question: What about the TGI (CCRF-CEM leukemia) of the same molecule?
Answer: 21.9 µM

Question: And the TGI (RXF 393 renal)?
Answer: 14.2 µM

Question: And the TGI (UACC-257 melanoma)?
Answer: 18.1 µM

Question: What does the source list for `CC(=O)Nc1ccc2c(C)c3c(nc2n1)[nH]c1ccccc13`?
Answer: TGI (DU-145 prostate): > 100 µM; TGI (SF-539 CNS): > 100 µM; TGI (NCI-H522 lung): 53.2 µM; TGI (RPMI-8226 leukemia): 55.2 µM; TGI (TK-10 renal): > 100 µM; TGI (BT-549 breast): 80.2 µM; TGI (ACHN renal): 59.6 µM; TGI (CCRF-CEM leukemia): > 100 µM; TGI (RXF 393 renal): > 100 µM; TGI (UACC-257 melanoma): > 100 µM

Question: How did the TGI (DU-145 prostate) turn out when `c1ccc(/C(=N/Nc2nc3ccccc3s2)C2CCCCC2)nc1` was run?
Answer: 34.2 µM

Question: And the TGI (SF-539 CNS)?
Answer: 27.5 µM

Question: What about the TGI (NCI-H522 lung) of the same molecule?
Answer: 7.32 µM

Question: And the TGI (RPMI-8226 leukemia)?
Answer: 21.9 µM

Question: What about the TGI (TK-10 renal) of the same molecule?
Answer: 14.5 µM

Question: What about the TGI (BT-549 breast) of the same molecule?
Answer: 35.1 µM

Question: What about the TGI (ACHN renal) of the same molecule?
Answer: 19.3 µM

Question: And the TGI (CCRF-CEM leukemia)?
Answer: 15.4 µM

Question: And the TGI (RXF 393 renal)?
Answer: 24.8 µM

Question: What about the TGI (UACC-257 melanoma) of the same molecule?
Answer: 17.5 µM

Question: For `O=C(O)CCc1nc2c(n1-c1ccccc1)C(=O)c1ccccc1C2=O`, which TGI (DU-145 prostate) is on record?
Answer: > 100 µM

Question: What about the TGI (SF-539 CNS) of the same molecule?
Answer: > 100 µM

Question: And the TGI (NCI-H522 lung)?
Answer: > 100 µM

Question: What about the TGI (RPMI-8226 leukemia) of the same molecule?
Answer: > 100 µM

Question: What about the TGI (TK-10 renal) of the same molecule?
Answer: > 100 µM

Question: And the TGI (BT-549 breast)?
Answer: > 100 µM

Question: What about the TGI (ACHN renal) of the same molecule?
Answer: > 100 µM

Question: What about the TGI (CCRF-CEM leukemia) of the same molecule?
Answer: > 100 µM

Question: And the TGI (RXF 393 renal)?
Answer: > 100 µM

Question: What about the TGI (UACC-257 melanoma) of the same molecule?
Answer: > 100 µM

Question: What does the source list for `N#Cc1c(-c2ccc(Cl)cc2)c2c(nn3c4ccc5ccccc5c4nnc23)[nH]c1=O`?
Answer: TGI (DU-145 prostate): 4.61 µM; TGI (SF-539 CNS): 3.96 µM; TGI (NCI-H522 lung): 3.56 µM; TGI (RPMI-8226 leukemia): > 28.9 µM; TGI (TK-10 renal): > 100 µM; TGI (BT-549 breast): 2.92 µM; TGI (ACHN renal): 8.76 µM; TGI (CCRF-CEM leukemia): > 100 µM; TGI (RXF 393 renal): 3.72 µM; TGI (UACC-257 melanoma): 18.8 µM
